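Method: 48-hour compound exposure of cells in 96-well plates, five concentrations, linear interpolation of endpoints. Here, GI50 denotes the concentration required for 50% inhibition of growth.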 Active and inactive are the calls of the source. No stated cut-off is given here; in the data, active = GI50 up to about 1.1 µM and inactive = higher.

Common to all, as to experiment: NCI anticancer screen, dose series, 48 h
Assay [1] concerns A549.
Assay [2] has as its system ACHN.
The test system of assay [3] is DU-145.
Assay [4] relates to K562.
Assay [5] concerns MCF7.
Assay [6] has as its system MDA-MB-435.
For assay [7], the system named is MOLT-4.
Assay [8] has as its system NCI-H226.
Assay [9] relates to NCI-H23.
The test system of assay [10] is OVCAR-5.
For assay [11], the system named is OVCAR-8.
Assay [12] has as its system RXF 393.
The subject of assay [13] is SF-539.
The subject of assay [14] is SK-OV-3.
Assay [15] deals with SNB-75.
For assay [16], the system named is U-251.
Assay [17] has as its system SK-MEL-28.

As for `CC(C)/C(Cl)=N\OC(=O)NNc1ccccc1`, the GI50 in assay [1] was 0.0721 µM (active); in assay [2], 14.1 µM (inactive); in assay [3], > 100 µM (inactive); in [4], < 0.01 µM (active); in [5], 8.93 µM (inactive); in assay [6], 1 µM (active). Moreover, the GI50 in assay [7] was < 0.01 µM (active); in assay [8], 27 µM (inactive); in [9], 26.8 µM (inactive); in [10], > 100 µM (inactive); in assay [11], 0.168 µM (active); in assay [12], > 100 µM (inactive). Besides, the GI50 in assay [13] was 29.3 µM (inactive); in [14], > 100 µM (inactive); in [15], > 100 µM (inactive); in [16], 37.6 µM (inactive).

On to `O=C(O)CN1CCN(CC(=O)O)CCN(CC(=O)O)CCN(CC(=O)O)CC1` [TETRAXETAN], for which the GI50 in assay [1], in [2], in assay [3], in assay [4], in [5] and in [6] was > 100 µM (inactive) throughout. The GI50 in assay [7], in [8], in [9], in [10], in assay [11] and in assay [12] was > 100 µM (inactive) throughout. In addition, the GI50 in [13], in assay [15] and in assay [16] was > 100 µM (inactive) each time.

As to `COc1c(C)c(C/C=C(\C)CC/C=C(\C)CC/C=C(\C)CCC=C(C)C)c(OC)c2ccccc12`, the GI50 in [1], in assay [2], in assay [3], in assay [4], in [5] and in [6] was > 100 µM (inactive) each time. For the same compound, the GI50 in [7], in assay [9], in assay [10], in [11], in [12] and in assay [13] was > 100 µM (inactive) throughout. For the same compound, the GI50 in [14], in assay [15] and in [16] was > 100 µM (inactive) each time.

`CCCSc1ccc2[nH]c(N3C(=O)/C(=C/c4ccc(O)c(OC)c4)N=C3c3ccccc3)cc2c1`: the GI50 is 25.2 µM (inactive) in assay [2]; 25.8 µM (inactive) in [3]; 3.68 µM (inactive) in assay [4]; 2.94 µM (inactive) in assay [5]; 2.69 µM (inactive) in assay [6]; 4.23 µM (inactive) in assay [7]. Moreover, the GI50 was 16.7 µM (inactive) in assay [9]; 4.07 µM (inactive) in [10]; 21.3 µM (inactive) in assay [11]; 18.8 µM (inactive) in [12]; 4.88 µM (inactive) in assay [13]; 17.2 µM (inactive) in [17]. The GI50 was 0.1 µM (active) in assay [14] and 26.2 µM (inactive) in assay [15].

Turning to `Cn1c(N/N=C/c2ccc(Cl)cc2)nc(-c2ccc(Cl)cc2)c(C#N)c1=O`, the GI50 is 17.8 µM (inactive) in [1]; 61.5 µM (inactive) in assay [2]; 22.5 µM (inactive) in assay [3]; > 100 µM (inactive) in assay [4]; 21.1 µM (inactive) in assay [5]; 29.9 µM (inactive) in assay [6]. The GI50 in assay [7] was 44.7 µM (inactive); in assay [9], 18.7 µM (inactive); in assay [10], 23.8 µM (inactive); in [11], 14.6 µM (inactive); in assay [12] it was 22.8 µM (inactive); in [13] it was 21.8 µM (inactive). Moreover, the GI50 is 37.8 µM (inactive) in [17], > 100 µM (inactive) in [14], 25.3 µM (inactive) in assay [15] and 29.9 µM (inactive) in assay [16].

Take `CCOC(=O)CCCn1cc(C(=O)OC)nn1`: the GI50 in [1], in assay [2], in assay [3], in assay [5], in assay [6] and in assay [7] was > 100 µM (inactive) each time. Moreover, the GI50 in [8], in assay [9], in assay [11], in assay [12], in assay [13] and in assay [17] was > 100 µM (inactive) in each case. In addition, the GI50 in assay [15] and in [16] was > 100 µM (inactive) each time.

For the compound `C(/c1ccco1)=c1/nc(-c2ccccc2)n2c1nc1ccccc12`, the GI50 was 50 µM (inactive) in assay [1]; 21.9 µM (inactive) in assay [2]; > 100 µM (inactive) in assay [3]; 20.9 µM (inactive) in assay [4]; 42.6 µM (inactive) in assay [5]; 14.4 µM (inactive) in assay [6]. The GI50 is 10.3 µM (inactive) in assay [7]; 9.48 µM (inactive) in assay [8]; 35.2 µM (inactive) in assay [9]; 69.8 µM (inactive) in [10]; 45.1 µM (inactive) in [11]; 20.2 µM (inactive) in assay [12]. Moreover, the GI50 is 24.3 µM (inactive) in [13], 22.4 µM (inactive) in assay [14] and 40.6 µM (inactive) in assay [16].

`CC12CCC(C1)C(C)(C)C2OC(=O)c1ccccc1N` (stereo not drawn): the GI50 in assay [1] is 14.8 µM (inactive); in assay [2], 17.5 µM (inactive); in assay [3], 16.4 µM (inactive); in assay [4], 14.9 µM (inactive); in assay [5], 16.5 µM (inactive); in assay [6] it was 16.7 µM (inactive). In addition, the GI50 in [7] is 6 µM (inactive); in assay [9], 15.7 µM (inactive); in assay [10], 18.2 µM (inactive); in assay [11], 18.5 µM (inactive); in assay [12], 12.2 µM (inactive); in [13] it was 18.6 µM (inactive). Also, the GI50 in [17] was 16.7 µM (inactive); in assay [14], 16.7 µM (inactive); in assay [15], 20.5 µM (inactive); in assay [16] it was 17.6 µM (inactive).

For the compound `Nn1c(-c2ccccc2)n[nH]c1=O`, the GI50 in [1] was > 100 µM (inactive); in assay [2], > 100 µM (inactive); in assay [3], > 100 µM (inactive); in assay [4] it was > 10 µM (inactive); in assay [5], > 100 µM (inactive); in assay [6], > 100 µM (inactive). The GI50 in [7], in [8], in assay [9], in [10], in assay [11] and in assay [13] was > 100 µM (inactive) each time. The GI50 in assay [17], in [14], in assay [15] and in [16] was > 100 µM (inactive) each time.

Turning to `[N-]=[N+]=Nc1c([N+](=O)[O-])c(=O)n2c3c(cccc13)CCC2`, the GI50 was 35.9 µM (inactive) in [1]; 17.8 µM (inactive) in [2]; 16.9 µM (inactive) in [3]; 1.75 µM (inactive) in [4]; 11 µM (inactive) in assay [5]; 17.3 µM (inactive) in assay [6]. The GI50 in [7] is 2.48 µM (inactive); in [8] it was 24.2 µM (inactive); in [9] it was 16.1 µM (inactive); in assay [10] it was 16.4 µM (inactive); in assay [11] it was 17.3 µM (inactive); in assay [13], 23.2 µM (inactive). Besides, the GI50 in [17] is 5.62 µM (inactive); in [14], > 100 µM (inactive); in assay [15] it was 19.4 µM (inactive); in assay [16] it was 17.5 µM (inactive).

Consider `CCc1ccc(Nc2cc(=O)[nH]c(SCc3ccccc3)n2)cc1`, for which the GI50 in assay [1] is > 100 µM (inactive); in [2] it was 50.7 µM (inactive); in assay [3], > 100 µM (inactive); in assay [4], > 100 µM (inactive); in assay [5], > 100 µM (inactive); in assay [6], > 100 µM (inactive). In addition, the GI50 is > 100 µM (inactive) in assay [7]; > 100 µM (inactive) in [8]; 61.5 µM (inactive) in [9]; > 100 µM (inactive) in assay [10]; 44.9 µM (inactive) in assay [11]; > 100 µM (inactive) in [12]. For the same compound, the GI50 in [13] was 52 µM (inactive); in assay [14], > 100 µM (inactive); in assay [15] it was 30.3 µM (inactive).

In the case of `CC1=CC(=O)CC(C)(C)C1/C=C/C(C)=C/C=C/C(C)=C/C=C/C=C(C)/C=C/C=C(C)/C=C/C1=C(C)CC(O)CC1(C)C` (stereo not drawn), the GI50 in assay [2] was 28.6 µM (inactive); in [3], 24.4 µM (inactive); in assay [4] it was 0.745 µM (active); in assay [5], 16.3 µM (inactive); in [6], 25 µM (inactive); in assay [7] it was 0.0853 µM (active). The GI50 in assay [8] is > 100 µM (inactive); in assay [9] it was 27.9 µM (inactive); in assay [10], 57.3 µM (inactive); in assay [11], 32.2 µM (inactive); in assay [12], 20.1 µM (inactive); in assay [13], 47.2 µM (inactive). The GI50 is 28.4 µM (inactive) in assay [17], > 100 µM (inactive) in assay [14] and 37.8 µM (inactive) in assay [16].

Regarding `C=CCOC(C)(C)C1=CCC(C)CC1` (stereo not drawn), the GI50 in assay [1], in assay [2], in assay [3], in assay [5], in assay [6] and in [7] was > 100 µM (inactive) each time. The GI50 in [9], in [10], in assay [11], in assay [12], in assay [13] and in assay [17] was > 100 µM (inactive) each time. In addition, the GI50 in assay [14], in [15] and in [16] was > 100 µM (inactive) each time.

(Values after ChEMBL document CHEMBL1201862, “PubChem BioAssay data set” (2004).)
